Experimental data published in US9394285B2 (Pfizer Inc., priority 2013, dated 2016).

Biological target: human AMPK (full-length γ1, β1 and α1 subunits) (Homo sapiens (Human), UniProt Q13131+Q9Y478)
Experiment: AMPK in vitro biochemical assay (33P-based, SAMS peptide, PP2A dephosphorylation)
Conditions: for EC50: activation of phosphorylated AMPK, 33P-ATP, SAMS peptide, PP2A treatment, 4-parameter fit; for Emax / Maximum: counts as % of positive control wells (enzyme, allosteric activator or AMP, PP2A and substrate); for Emax: read-out: Maximum
In short: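 Phosphorylated full-length α1β1γ1 AMPK (E. coli-expressed, His-purified, gel-filtered) preincubated 15 min RT with compound in HEPES pH 7.5, 10 mM MgCl2 buffer, then PP2A added to dephosphorylate pThr172.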

human AMPK (full-length γ1, β1 and α1 subunits), sequence (Q13131 whole entry): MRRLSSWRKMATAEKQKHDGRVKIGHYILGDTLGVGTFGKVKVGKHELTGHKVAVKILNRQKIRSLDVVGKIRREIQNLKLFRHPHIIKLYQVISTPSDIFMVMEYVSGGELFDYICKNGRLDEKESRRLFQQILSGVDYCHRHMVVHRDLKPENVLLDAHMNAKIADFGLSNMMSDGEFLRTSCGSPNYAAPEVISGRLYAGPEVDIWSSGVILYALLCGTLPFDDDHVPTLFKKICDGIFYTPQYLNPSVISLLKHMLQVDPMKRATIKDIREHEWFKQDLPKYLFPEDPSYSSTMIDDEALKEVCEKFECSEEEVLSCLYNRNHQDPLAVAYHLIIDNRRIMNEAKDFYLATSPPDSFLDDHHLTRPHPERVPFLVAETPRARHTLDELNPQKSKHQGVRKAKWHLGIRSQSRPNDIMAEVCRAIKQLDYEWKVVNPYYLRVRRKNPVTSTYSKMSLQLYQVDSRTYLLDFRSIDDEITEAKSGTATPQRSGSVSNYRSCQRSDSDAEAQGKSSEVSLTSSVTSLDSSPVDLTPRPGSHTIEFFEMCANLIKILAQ
human AMPK (full-length γ1, β1 and α1 subunits), sequence (Q9Y478 whole entry): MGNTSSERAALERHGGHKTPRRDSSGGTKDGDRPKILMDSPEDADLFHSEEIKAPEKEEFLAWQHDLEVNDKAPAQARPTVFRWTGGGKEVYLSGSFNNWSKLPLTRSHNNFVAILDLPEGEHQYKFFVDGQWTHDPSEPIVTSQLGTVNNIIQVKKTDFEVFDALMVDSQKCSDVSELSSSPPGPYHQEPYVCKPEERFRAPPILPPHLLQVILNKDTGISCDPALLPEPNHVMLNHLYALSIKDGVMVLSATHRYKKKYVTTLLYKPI
human AMPK (full-length γ1, β1 and α1 subunits), sequence (P54619 whole entry partner): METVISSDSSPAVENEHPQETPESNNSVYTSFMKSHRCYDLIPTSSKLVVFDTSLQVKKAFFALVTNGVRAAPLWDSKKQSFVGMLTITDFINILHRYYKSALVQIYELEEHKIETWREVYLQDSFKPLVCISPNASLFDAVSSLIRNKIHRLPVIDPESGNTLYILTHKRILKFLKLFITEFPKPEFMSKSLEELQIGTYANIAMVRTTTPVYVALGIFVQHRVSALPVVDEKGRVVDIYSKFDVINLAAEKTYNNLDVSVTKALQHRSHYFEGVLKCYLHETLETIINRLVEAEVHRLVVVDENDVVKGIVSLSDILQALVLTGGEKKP

| Compound | EC50 [nM] | Emax [%] | Maximum [%] |
| --- | --- | --- | --- |
| O=C(O)c1n[nH]c2cc(Cl)c(-c3ccc(C4CCCCC4)cc3)cc12 [Example 110, 6-Chloro-5-(4-cyclohexylphenyl)-1H-indazole-3-carboxylic acid] | 206 | 90 |  |
| CN1CCN(CCCOc2ccc(-c3cc4c(C(=O)O)c[nH]c4cc3Cl)cc2)CC1=O [Example 188, 6-chloro-5-{4-[3-(4-methyl-3-oxopiperazin-1-yl)propoxy]phenyl}-1H-indole-3-carboxylic acid] | 52.7 | 129 |  |
| O=C(O)c1c[nH]c2cc(F)c(-c3ccc(C4CCCCO4)cc3)cc12 (single isomer, unassigned) [Example 172, 6-fluoro-5-[4-(tetrahydro-2H-pyran-2-yl)phenyl]-1H-indole-3-carboxylic acid] | 11 |  | 101.1 |
| CS(=O)(=O)N1CCC(c2ccc(-c3cc4c(C(=O)O)c[nH]c4cc3Cl)cc2)C1 (stereo not shown) [Example 16, 6-chloro-5-{4-[1-(methylsulfonyl)pyrrolidin-3-yl]phenyl}-1H-indole-3-carboxylic acid] | 412 | 114 |  |
| CC(=O)N1CC(Oc2ccc(-c3cc4c(C(=O)O)c[nH]c4cc3Cl)cc2)C1 [Example 8, 5-{4-[(1-acetylazetidin-3-yl)oxy]phenyl}-6-chloro-1H-indole-3-carboxylic acid] | 220 | 94 |  |
| O=C(O)c1c[nH]c2cc(Cl)c(-c3ccc(O[C@H]4CCCC[C@@H]4O)cc3)cc12 [Example 50, 6-chloro-5-(4-{[(1S,2S)-2-hydroxycyclohexyl]oxy}phenyl)-1H-indole-3-carboxylic acid] | 204 | 79 |  |
| CS(=O)(=O)N1CCC1c1ccc(-c2cc3c(C(=O)O)c[nH]c3cc2Cl)cc1 (stereo not shown) [Example 45, 6-chloro-5-{4-[1-(methylsulfonyl)azetidin-2-yl]phenyl}-1H-indole-3-carboxylic acid] | 225 | 94 |  |
| O=C(O)c1c[nH]c2cc(Cl)c(-c3ccc4c(c3)OC[C@H](CO)O4)cc12 [Example 144, 6-chloro-5-[(2S)-2-(hydroxymethyl)-2,3-dihydro-1,4-benzodioxin-6-yl]-1H-indole-3-carboxylic acid] | 236 | 119 |  |
| O=C(O)c1c[nH]c2cc(Cl)c(-c3ccc(OCCO)c(F)c3)cc12 [Example 81, 6-chloro-5-[3-fluoro-4-(2-hydroxyethoxy)phenyl]-1H-indole-3-carboxylic acid] | 182 | 97 |  |
| O=C(O)c1c[nH]c2cc(F)c(-c3ccc(OCCC4CCOC4)cc3)c(F)c12 (stereo not shown) [Example 190, 4,6-difluoro-5-{4-[2-(tetrahydrofuran-3-yl)ethoxy]phenyl}-1H-indole-3-carboxylic acid] | 109 | 108 |  |
| O=C(O)c1c[nH]c2cc(Cl)c(-c3cnc(N4CCOCC4)nc3)cc12 [Example 76, 6-chloro-5-[2-(morpholin-4-yl)pyrimidin-5-yl]-1H-indole-3-carboxylic acid] | 271 | 104 |  |
| O=C(O)c1c[nH]c2cc(F)c(-c3ccc(C4(CO)CCC4)cc3)c(F)c12 [Example 141, 4,6-difluoro-5-(4-(1-(hydroxymethyl)cyclobutyl)phenyl)-1H-indole-3-carboxylic acid] | 9.3 |  | 119 |
| CC(CO)Oc1ccc(-c2cc3c(C(=O)O)c[nH]c3cc2Cl)cc1 (stereo not shown) [Example 183, 6-chloro-5-{4-[(1-hydroxypropan-2-yl)oxy]phenyl}-1H-indole-3-carboxylic acid] | 28.1 | 87.3 |  |
| O=C(O)c1c[nH]c2cc(Cl)c(-c3ccc(O[C@@H]4CCC[C@H]4O)cc3)cc12 (racemic) [Example 38, (±)-6-chloro-5-(4-{[trans-2-hydroxycyclopentyl]oxy}phenyl)-1H-indole-3-carboxylic acid] | 106 | 93 |  |
| NC(=O)COc1ccc(-c2cc3c(C(=O)O)c[nH]c3cc2Cl)cc1 [Example 70, 5-[4-(2-amino-2-oxoethoxy)phenyl]-6-chloro-1H-indole-3-carboxylic acid] | 77.5 | 106 |  |
| O=C(O)c1c[nH]c2cc(Cl)c(-c3ccc([C@H]4C[C@H](O)C4)cc3)cc12 [Example 138, 6-Chloro-5-[4-(trans-3-hydroxycyclobutyl)phenyl]-1H-indole-3-carboxylic acid] | 40.4 | 117 |  |
| COC(=O)N1CCC(c2ccc(-c3cc4c(C(=O)O)c[nH]c4cc3Cl)cc2)C1 (single isomer, unassigned) [Example 14B, 6-chloro-5-{4-[1-(methoxycarbonyl)pyrrolidin-3-yl]phenyl}-1H-indole-3-carboxylic acid] | 118 |  | 91 |
| Cc1cc2[nH]cc(C(=O)O)c2cc1-c1ccc(C2(CO)CC2)cc1 [Example 27, 5-{4-[1-(hydroxymethyl)cyclopropyl]phenyl}-6-methyl-1H-indole-3-carboxylic acid] | 36.9 | 107 |  |
| COc1ccc(-c2cc3c(C(=O)O)c[nH]c3cc2Cl)cc1OC [Example 37, 6-chloro-5-(3,4-dimethoxyphenyl)-1H-indole-3-carboxylic acid] | 248 | 81 |  |

| Compound | EC50 [nM] | Emax [%] | Maximum [%] |
| --- | --- | --- | --- |
| CC(C)(CO)c1ccc(-c2cc3c(C(=O)O)n[nH]c3cc2Cl)cc1 [Example 115, 6-Chloro-5-(4-(1-hydroxy-2-methylpropan-2-yl)phenyl)-1H-indazole-3-carboxylic acid] | 27 | 95 |  |
| O=C(O)c1n[nH]c2cc(Cl)c(-c3ccc([C@H]4C[C@@H](O)C4)cc3)cc12 [Example 120, 6-Chloro-5-(4-((1S,3S)-3-hydroxycyclobutyl)phenyl)-1H-indazole-3-carboxylic acid] | 52.4 |  |  |
| CC(C)(CO)COc1ccc(-c2cc3c(C(=O)O)c[nH]c3cc2Cl)cc1 [Example 21] | 93.5 | 86 |  |
| O=C(O)c1c[nH]c2cc(Cl)c(-c3ccc(C4CCCOC4)cc3)cc12 (stereo not shown) [Example 168, 6-chloro-5-[4-(tetrahydro-2H-pyran-3-yl)phenyl]-1H-indole-3-carboxylic acid] | 171 | 109 |  |
| O=C(O)c1c[nH]c2cc(Cl)c(-c3ccc(OCCCN4CCNCC4)cc3)cc12 [Example 52, 6-chloro-5-{4-[3-(piperazin-1-yl)propoxy]phenyl}-1H-indole-3-carboxylic acid] | 38.1 | 91 |  |
| CS(=O)(=O)NC(=O)c1c[nH]c2cc(Cl)c(-c3ccc(C4(O)CCC4)cc3)cc12 [Example 147, 6-chloro-5-[4-(1-hydroxycyclobutyl)phenyl]-N-(methylsulfonyl)-1H-indole-3-carboxamide] | 10.1 | 132 |  |
| O=C(O)c1c[nH]c2cc(Cl)c(-c3ccc(OCCO)cc3F)cc12 [Example 86, 6-chloro-5-[2-fluoro-4-(2-hydroxyethoxy)phenyl]-1H-indole-3-carboxylic acid] | 99.2 | 99 |  |
| O=C(O)c1c[nH]c2cc(Cl)c(-c3ccc(CC(=O)N4CCOCC4)cc3)cc12 [Example 77, 6-chloro-5-{4-[2-(morpholin-4-yl)-2-oxoethyl]phenyl}-1H-indole-3-carboxylic acid] | 207 | 89 |  |
| O=C(O)c1c[nH]c2cc(Cl)c(-c3ccc(CCO)cc3)cc12 [Example 71, 6-chloro-5-[4-(2-hydroxyethyl)phenyl]-1H-indole-3-carboxylic acid] | 14 | 75 |  |
| O=C(O)c1c[nH]c2cc(F)c(-c3ccc(-c4ccccc4O)cc3)cc12 [Example 135, 6-fluoro-5-(2′-hydroxybiphenyl-4-yl)-1H-indole-3-carboxylic acid] | 6.5 | 82 |  |
| O=C(O)c1c[nH]c2cc(F)c(-c3ccc(C4(CO)CCC4)cc3)c(F)c12 [Example 167, 4,6-difluoro-5-{4-[1-(hydroxymethyl)cyclobutyl]phenyl}-1H-indole-3-carboxylic acid] | 9.33 |  | 143.1 |
| O=C(O)c1c[nH]c2cc(Cl)c(-c3ccc(C4(O)CCC4)c(F)c3)cc12 [Example 42, 6-chloro-5-[3-fluoro-4-(1-hydroxycyclobutyl)phenyl]-1H-indole-3-carboxylic acid] | 21.8 | 65 |  |
| O=C(O)c1c[nH]c2cc(Br)c(-c3ccc(-c4ccccc4O)cc3)cc12 [Example 68, 6-Bromo-5-(2′-hydroxybiphenyl-4-yl)-1H-indole-3-carboxylic acid] | 4.3 | 117 |  |
| O=S(=O)(O)c1c[nH]c2cc(Cl)c(-c3ccc(C4CCOCC4)cc3)cc12 [Example 134, 6-Chloro-5-(4-(tetrahydro-2H-pyran-4-yl)phenyl)-1H-indole-3-sulfonic acid] | 82.8 | 16 |  |
| COc1ccc(-c2cc3c(C(=O)NS(=O)(=O)c4ccccc4)n[nH]c3cc2Cl)cc1 [Example 118, 6-Chloro-5-(4-methoxyphenyl)-N-(phenylsulfonyl)-1H-indazole-3-carboxamide] | 169 | 125 |  |
| O=C(O)c1c[nH]c2cc(Cl)c(-c3ccc(OCCCO)c(F)c3)cc12 [Example 58, 6-chloro-5-[3-fluoro-4-(3-hydroxypropoxy)phenyl]-1H-indole-3-carboxylic acid] | 89.2 | 107 |  |
| O=C(O)c1c[nH]c2cc(Cl)c(-c3ccc(C4(CO)CCC4)cc3F)cc12 [Example 164, 6-chloro-5-{2-fluoro-4-[1-(hydroxymethyl)cyclobutyl]phenyl}-1H-indole-3-carboxylic acid] | 17.5 | 142 |  |
| Cc1cc(C2(O)CCC2)ccc1-c1cc2c(C(=O)O)c[nH]c2cc1Cl [Example 40, 6-chloro-5-[4-(1-hydroxycyclobutyl)-2-methylphenyl]-1H-indole-3-carboxylic acid] | 821 | 78 |  |
